Test results: ChEMBL document CHEMBL3137667, “[Drug-induced liver injury; fourteenth updated edition of the bibliographic database of liver injuries and related drugs]” (Gastroenterol Clin Biol, 2004)

Tests used:
[1] = Highest frequency of moderate liver toxicity observed during clinical trials, expressed as a percentage. [column '% BIOL' in source]; conditions: human
[2] = Highest frequency of acute liver toxicity observed during clinical trials, expressed as a percentage. [column '% AIGUE' in source]; conditions: human
[3] = Times to onset, minimal and maximal, observed in the indexed observations. [column 'DELAI' in source]; conditions: human
[4] = human, serum
[5] = human, serum; remark: listed apart in the source
[6] = human
[7] = human; remark: listed apart in the source
[8] = human; remark: listed apart in the source
[9] = human, serum, 4383 h
[10] = human; remark: listed apart in the source
[11] = human; remark: listed apart in the source
[12] = human; remark: listed apart in the source
[13] = human; remark: listed apart in the source
[14] = human; remark: listed apart in the source
[15] = human; remark: listed apart in the source
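Throughout, for Hepatotoxicity (association with vascular disease): count of indexed literature references reporting vascular liver injury in humans, e.g. peliosis hepatitis, hepatic veno-occlusive disease or Budd-Chiari syndrome.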
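Throughout, for Hepatotoxicity (benign tumour): value is a count of indexed literature references citing a benign tumour confirmed by histopathology.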
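Throughout, for Hepatotoxicity (choleostasis): human cholestatic liver injury, shown by histopathology or by peak ALT or AST elevation over alkaline phosphatase ratio below 2, value counts indexed literature reports.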
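Throughout, for Hepatotoxicity (chronic liver disease): chronic liver injury confirmed by histopathology or persistently raised serum aminotransferase activity beyond 6 months, value given as the count of indexed literature references.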
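Throughout, for Hepatotoxicity (cirrhosis): value is a count of indexed literature references reporting cirrhosis confirmed by histopathology.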
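Throughout, for Hepatotoxicity (cytolytic): human cytolytic liver injury, shown by histopathology or by a ratio above 5 of peak ALT or AST elevation to alkaline phosphatase elevation, value counts indexed references.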
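Throughout, for Hepatotoxicity (granulomatous hepatitis): value is a count of indexed literature references reporting granulomatous liver disease confirmed by histopathology.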
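Throughout, for Hepatotoxicity (malignant tumour): malignant tumour confirmed by histopathology, value gives the count of indexed literature references reporting it.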
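Throughout, for Hepatotoxicity (severe hepatitis): human clinical data: severe hepatitis, meaning potentially life-threatening liver failure or clinically observed cases, the value counts how many indexed literature references report it.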
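Throughout, for Hepatotoxicity (steatosis): steatosis confirmed by histopathology, value is the count of indexed references.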

Row | SMILES | Hepatotoxicity (moderate) [1] [%] | Hepatotoxicity (acute) [2] [%] | Hepatotoxicity (time to onset) [3] | Hepatotoxicity (moderate) [4] | Hepatotoxicity (acute) [5] | Hepatotoxicity (cytolytic) [6] | Hepatotoxicity (choleostasis) [7] | Hepatotoxicity (severe hepatitis) [8] | Hepatotoxicity (chronic liver disease) [9] | Hepatotoxicity (cirrhosis) [10] | Hepatotoxicity (granulomatous hepatitis) [11] | Hepatotoxicity (association with vascular disease) [12] | Hepatotoxicity (steatosis) [13] | Hepatotoxicity (malignant tumour) [14] | Hepatotoxicity (benign tumour) [15] | also measured
1 | Cc1cc(O)c(C(=O)N[C@@H](C(=O)N[C@@H]2C(=O)N3C(C(=O)O)=C(CSc4nnnn4C)CS[C@H]23)c2ccc(O)cc2)cn1 [CEFPIRAMIDE] | 10 | 0 | 1 month | 5 | 1 | 1 | 0 | 0 | 0 | 0 | 0 | 0 | 0 | 0 | 0 | –
2 | Cc1ccc(-c2cc(C(F)(F)F)nn2-c2ccc(S(N)(=O)=O)cc2)cc1 [CELECOXIB] | – | – | 2 days - 3 weeks | 3 | 8 | – | – | – | 0 | 0 | – | 0 | 0 | 0 | 0 | Hepatotoxicity (moderate) ([1]; Liver): 2%; Hepatotoxicity (acute) ([2]; Liver): 0%; Hepatotoxicity (cytolytic) ([6]; Liver): 5; Hepatotoxicity (choleostasis) ([7]; Liver): 4; Hepatotoxicity (severe hepatitis) ([8]; Liver): 0; Hepatotoxicity (granulomatous hepatitis) ([11]; Liver): 0
3 | CCN(CC)CCCC(C)Nc1ccnc2cc(Cl)ccc12 (stereo not given) [CHLOROQUINE] | 0 | 0 | 1 day - 4 months | 7 | 8 | 4 | 1 | 0 | 0 | 0 | 1 | 0 | 0 | 0 | 0 | –
4 | O=NN(CCCl)C(=O)N[C@H]1C(O)O[C@H](CO)[C@@H](O)[C@@H]1O (stereo not given in full) [CHLOROZOTOCIN] | 33 | 0 | 1.5 months | 2 | 2 | 1 | 1 | 0 | 0 | 0 | 0 | 0 | 0 | 0 | 0 | –
